pIC50: −log10 of the molar value.

Experiment [1] relates to HN5 tumor cells. The experiment can be described thus: Cell growth inhibition assay (CellTiter-Glo), HN5. The class given is cell-based, Human. The settings on record: Homo sapiens, 72 h; 3 days incubation. The procedure, abridged: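 Cells seeded at 500/well (HN5 and HT-29 in high-glucose DMEM/10% FBS; A375P F11s in RPMI/10% FBS with pyruvate; SK-MEL-3 in McCoy's 5A/15% FBS), then exposed next day to 1:3 serial compound dilutions (0.2% DMSO) for 3 days at 37° C. CellTiter-Glo luminescence measured ATP; IC50 derived by 4-parameter fit.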
On the technique in general: ATP-based viability assays read luminescence as a measure of living cells.

Experiment [2] has as its system BT474 tumor cells. The experiment can be described thus: Cell growth inhibition assay (CellTiter-Glo), BT474. The class given is cell-based, Human. The settings on record: Homo sapiens, BT-474, 72 h, 3 days incubation.

In general, pIC50 refers to the IC50 on a negative log10 scale, so that one unit is a factor of ten. Read a low pIC50 as a high IC50. For `CC(C)c1nc(-c2cccc(NS(=O)(=O)c3c(F)cccc3F)c2)c(-c2ccnc(Nc3cc(F)c(N4CCN(CCS(C)(=O)=O)CC4)cc3F)n2)s1` [Example 87], the pIC50 in experiment [1] and in experiment [2] was less than 6.00 throughout.

As for `CC(=O)N1CCN(c2ccc(Nc3nccc(-c4sc(C(C)C)nc4-c4cccc(NS(=O)(=O)c5cc(F)ccc5F)c4)n3)cn2)CC1` [Example 96], the pIC50 was 6.00 to 7.00 in experiment [1] and less than 6.00 in experiment [2].

On to `CC(C)c1nc(-c2cccc(NS(=O)(=O)c3ccccc3)c2)c(-c2ccnc(Nc3ccc(F)c(N4CCN(CCS(C)(=O)=O)CC4)c3)n2)s1` [Example 73], for which the pIC50 in experiment [1] is 6.00 to 7.00; in experiment [2], less than 6.00.

Consider `CC(C)c1nc(-c2cc(F)cc(NS(=O)(=O)c3ccc(F)cc3)c2)c(-c2ccnc(Nc3ccc(N4CCOCC4)c(F)c3)n2)s1` [Example 83], for which the pIC50 in experiment [1] was 6.00 to 7.00; in experiment [2], less than 6.00.

`CCc1nc(-c2cccc(NS(=O)(=O)c3ccccc3)c2)c(-c2ccnc(Nc3ccc(N4CCOCC4)c(F)c3)n2)s1` [Example 4]: the figures for the pIC50 in experiment [1] and in experiment [2] were 6.00 to 7.00 and less than 6.00, respectively.

For `CC(=O)N1CCc2cc(Nc3nccc(-c4sc(C(C)C)nc4-c4cccc(NS(=O)(=O)c5ccccc5)c4)n3)ccc21` [Example 71], the results for the pIC50 in experiment [1] and in experiment [2] were 6.00 to 7.00 and less than 6.00, respectively.

Turning to `CC(C)c1nc(-c2cc(F)cc(NS(=O)(=O)c3c(F)cccc3F)c2)c(-c2ccnc(Nc3ccc(N4CCOCC4)c(F)c3)n2)s1` [Example 85], the pIC50 in experiment [1] is 6.00 to 7.00.

Turning to `Cc1cc(N2CCC(N3CCCCC3)CC2)ccc1Nc1nccc(-c2sc(C(C)C)nc2-c2cccc(NS(=O)(=O)c3c(F)cccc3F)c2)n1` [Example 91], the pIC50 in experiment [1] and in experiment [2] was less than 6.00 each time.

Regarding `CC(C)c1nc(-c2cccc(NS(=O)(=O)c3c(F)cccc3F)c2)c(-c2ccnc(Nc3cccc(N4CCN(C)CC4)c3)n2)s1` [Example 81], the values for the pIC50 in experiment [1] and in experiment [2] were 6.00 to 7.00 and less than 6.00, respectively.

For `CC(C)c1nc(-c2cccc(NS(=O)(=O)c3c(F)cccc3F)c2)c(-c2ccnc(Nc3ccc(N4CCCNCC4)nc3)n2)s1` [Example 82], the pIC50 in experiment [1] was 6.00 to 7.00; in experiment [2], less than 6.00.

With `COc1cc(N2CCN(CCF)CC2)ccc1Nc1nccc(-c2sc(C(C)C)nc2-c2cccc(NS(=O)(=O)c3c(F)cccc3F)c2)n1` [Example 79], the pIC50 in experiment [1] and in experiment [2] was less than 6.00 throughout.

Take `CCc1nc(-c2cccc(NS(=O)(=O)c3ccccc3)c2)c(-c2ccnc(Nc3ccc(OC)c(N4CCN(CCS(C)(=O)=O)CC4)c3)n2)s1` [Example 5, N-[3-(2-Ethyl-5-{2-[(4-(methyloxy)-3-{4-[2-(methylsulfonyl)ethyl]-1-piperazinyl}phenyl)amino]-4-pyrimidinyl}-1,3-thiazol-4-yl)phenyl]benzenesulfonamide]: the pIC50 in experiment [1] and in experiment [2] was 6.00 to 7.00 in each case.

Take `CC(C)c1nc(-c2cccc(NS(=O)(=O)c3c(F)cccc3F)c2)c(-c2ccnc(Nc3ccc(N4CC[C@@H](O)C4)nc3)n2)s1` [Example 89]: the pIC50 is 6.00 to 7.00 in experiment [1] and less than 6.00 in experiment [2].

Consider `CC(C)c1nc(-c2cccc(NS(=O)(=O)c3c(F)cccc3F)c2)c(-c2ccnc(Nc3ccc(N4CCCN(CCS(C)(=O)=O)CC4)nc3)n2)s1` [Example 88], for which the pIC50 was 6.00 to 7.00 in experiment [1] and less than 6.00 in experiment [2].

Turning to `CC(C)c1nc(-c2cccc(NS(=O)(=O)c3c(F)cccc3F)c2)c(-c2ccnc(Nc3ccc(N4CCN(CCO)CC4)nc3)n2)s1` [Example 80], the pIC50 in experiment [1] was 6.00 to 7.00; in experiment [2], less than 6.00.

Regarding `CC(C)c1nc(-c2cccc(NS(=O)(=O)c3c(F)cccc3F)c2)c(-c2ccnc(Nc3ccc(N4CCN(C(C)C)CC4)cc3O)n2)s1` [Example 78], the pIC50 in experiment [1] and in experiment [2] was less than 6.00 each time.

`CC(C)c1nc(-c2cccc(NS(=O)(=O)c3ccccc3)c2)c(-c2ccnc(Nc3ccc(N4CCOCC4)cn3)n2)s1` [Example 92]: the pIC50 in experiment [1] was 6.00 to 7.00; in experiment [2], less than 6.00.

In the case of `C=C(C)c1nc(-c2cccc(NS(=O)(=O)c3c(F)cccc3F)c2)c(-c2ccnc(Nc3ccc(N4CCN(CCF)CC4)c(F)c3)n2)s1` [Example 93], the negative logarithm of the IC50 (pIC50) in experiment [1] and in experiment [2] was less than 6.00 throughout.

As for `CC(C)c1nc(-c2cccc(NS(=O)(=O)c3ccccc3)c2)c(-c2ccnc(Nc3ccc(CC4CCN(CCS(C)(=O)=O)CC4)c(F)c3)n2)s1` [Example 72], the pIC50 is 6.00 to 7.00 in experiment [1] and less than 6.00 in experiment [2].

For the compound `CC(C)c1nc(-c2cc(F)cc(NS(=O)(=O)c3c(F)cccc3F)c2)c(-c2ccnc(Nc3ccc(N4CCOCC4)nc3)n2)s1` [Example 84], the results for the pIC50 in experiment [1] and in experiment [2] were 6.00 to 7.00 and less than 6.00, respectively.

Take `CCc1nc(-c2cccc(NS(=O)(=O)c3ccccc3)c2)c(-c2ccnc(Nc3ccc(N4CCN(C(C)=O)CC4)nc3)n2)s1` [Example 3, N-{3-[5-(2-{[6-(4-Acetyl-1-piperazinyl)-3-pyridinyl]amino}-4-pyrimidinyl)-2-ethyl-1,3-thiazol-4-yl]phenyl}benzenesulfonamide]: the pIC50 in experiment [1] and in experiment [2] was less than 6.00 in each case.

On to `CC(C)c1nc(-c2cccc(NS(=O)(=O)c3ccccc3)c2)c(-c2ccnc(Nc3ccc(N4CCN(CCS(C)(=O)=O)CC4)c(F)c3F)n2)s1` [Example 74], for which the negative logarithm of the IC50 (pIC50) in experiment [1] and in experiment [2] was less than 6.00 in each case.

Turning to `CC(C)c1nc(-c2ccc(F)c(NS(=O)(=O)c3c(F)cccc3F)c2)c(-c2ccnc(Nc3ccc(N4CCN(CCS(C)(=O)=O)CC4)c(F)c3)n2)s1` [Example 95], the negative-log IC50 (pIC50) was 6.00 to 7.00 in experiment [1] and less than 6.00 in experiment [2].

The record behind these values is patent US20110319392A1, “Thiazole Sulfonamide And Oxazole Sulfonamide Kinase Inhibitors” (priority 2009, published 2011).
